Drawing on patent US8748412B2, “Phenylalanine derivatives and their use as non-peptide GLP-1 receptor modulators” (Argusina Bioscience Inc., priority 2011, dated 2014), this text covers activation for 49 compounds.

The experiment addresses T1, human GLP1R (Homo sapiens, UniProt P43220).
T1 construct: expressed in transfected cells; host or cells: CHO cells (ATCC), transient transfection with pCMV-human GLP1R
Kind of experiment: Human GLP-1 receptor transfected cell assay (MRE/CRE-luciferase reporter gene, agonist activity). It is filed as cell-based. As to conditions: 6 h; for activation at 3.16 µM: concentration 3.16 μM; for activation at 3 µM: concentration 3 μM; for activation at 1 µM: concentration 1 μM. The method, boiled down:
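CHO cells transiently co-transfected with human GLP1R and MRE/CRE-driven luciferase reporter plasmids. Compound or GLP-1 (7-36 amide) standard dilution series added for 6 h at 37 °C, 5% CO2. Agonist activity read as Bright-Glo luciferase luminescence.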
A general note: Reporter assays use an easily measured gene product as a stand-in for the process of interest.

[1] abbreviates: concentration 10 μM, read-out: Activity (agonist), percentage of the activity of the control.
Setting [2] is: read-out: Activity (agonist), percentage of the activity of the control.
Where [3] appears, read: conc. 10 μM, percentage of the activity of the control, read-out: Agonist Activity.

Where two headings read alike, the source gives them in different places.

T1 sequence (P43220 24-463): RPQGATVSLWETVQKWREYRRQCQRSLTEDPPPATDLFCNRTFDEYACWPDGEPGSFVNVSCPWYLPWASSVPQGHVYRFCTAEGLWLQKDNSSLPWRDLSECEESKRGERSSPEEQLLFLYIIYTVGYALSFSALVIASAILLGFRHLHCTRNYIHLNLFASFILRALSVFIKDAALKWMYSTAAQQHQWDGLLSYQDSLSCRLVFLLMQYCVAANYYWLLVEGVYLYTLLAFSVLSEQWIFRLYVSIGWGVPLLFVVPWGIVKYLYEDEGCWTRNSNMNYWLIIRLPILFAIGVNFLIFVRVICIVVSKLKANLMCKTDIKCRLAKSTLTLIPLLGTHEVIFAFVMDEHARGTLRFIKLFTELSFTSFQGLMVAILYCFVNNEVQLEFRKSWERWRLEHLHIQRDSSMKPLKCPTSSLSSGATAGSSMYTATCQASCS

For the compound `CC(C)(C)OC(=O)Nc1ccc(-c2nc(-c3ccc(CC(NS(=O)(=O)N4CCN(c5ccc(C(F)(F)F)cc5)CC4)C(=O)O)cc3F)no2)cc1` (stereo not shown) [Compound 3Y], the activation at 10 µM under setting [1] was more than 60%.

With `Cc1ccc(-c2ccc(C(=O)N[C@H](Cc3ccc(-c4noc(-c5ccc(NC(=O)OC(C)(C)C)cc5)n4)c(F)c3)C(=O)O)o2)cc1` [Compound 11E], the activation at 3.16 µM under setting [2] is more than 60%.

Regarding `Cc1ccc(-c2ccc(NC(=O)NC(Cc3ccc(-c4noc(-c5ccc(NC(=O)OC(C)(C)C)cc5)n4)c(F)c3)C(=O)O)nc2)cc1Cl` (stereo not shown) [Compound 13M], the activation at 10 µM under setting [3] is more than 60%.

`CC(C)(C)OC(=O)Nc1ccc(-c2nc(-c3ccc(CC(NC(=O)c4ccc(-c5ccccn5)s4)C(=O)O)cc3F)no2)cc1` (stereo not shown) [Compound 13B]: under setting [3], the activation at 10 µM is more than 60%.

For the compound `CC(C)(C)OC(=O)Nc1ccc(-c2nc(-c3ccc(CC(NC(=O)c4ccc(-c5ccc(F)cc5)s4)C(=O)O)cc3F)no2)cc1` (stereo not shown) [Compound 11P], the activation at 10 µM under setting [3] is 20 to 40%.

Take `CC(C)(C)OC(=O)Nc1ccc(-c2nc(-c3ccc(CC(NC(=O)N4CCN(c5ccccc5C#N)CC4)C(=O)O)cc3F)no2)cc1` (stereo not shown) [Compound 12D]: under setting [3], the activation at 10 µM was more than 60%.

As for `CC(C)c1ccc(-c2ccc(NC(=O)NC(Cc3ccc(-c4noc(-c5ccc(NC(=O)OC(C)(C)C)cc5)n4)c(F)c3)C(=O)O)nc2)cc1` (stereo not shown) [Compound 13O], the activation at 10 µM under setting [3] lay in the range of 40 to 60%.

For `Cc1csc(-c2cccc(C(=O)N[C@H](Cc3ccc(-c4noc(-c5ccc(NC(=O)OC(C)(C)C)cc5)n4)c(F)c3)C(=O)O)c2)c1` [Compound 6U], under setting [2], the activation at 3 µM fell in the range of 40 to 60%.

For `Cc1ccc(-c2ccc(NC(=O)NC(Cc3ccc(-c4noc(-c5ccc(NC(=O)OC(C)(C)C)cc5)n4)c(F)c3)C(=O)O)nc2)cc1Cl` (stereo not shown) [Compound 4Z], under setting [1], the activation at 10 µM fell in the range of 40 to 60%.

For the compound `CC(C)(C)OC(=O)Nc1ccc(-c2nc(-c3ccc(CC(NC(=O)Nc4ccc(-c5cccc(F)c5)cn4)C(=O)O)cc3F)no2)cc1` (stereo not shown) [Compound 13W], the activation at 10 µM under setting [3] was more than 60%.

As for `Cc1ccc(-c2ccc(C(=O)NC(Cc3ccc(-c4noc(-c5ccc(NC(=O)OC(C)(C)C)cc5C)n4)c(F)c3)C(=O)O)o2)cc1` (stereo not shown) [Compound 1R], the activation at 3 µM under setting [2] is 20 to 40%.

Regarding `COc1cc2c(cc1OC(=O)c1ccc(NC(=O)OC(C)(C)C)cc1)CN(C(=O)c1ccc(-c3ccc(C)cc3)o1)C(C(=O)O)C2` (stereo not shown) [Compound 5W], under setting [1], the activation at 10 µM was more than 60%.

Turning to `CC(C)(C)OC(=O)Nc1ccc(-c2nc(-c3ccc(CC(NC(=O)Nc4cc(-c5ccccc5)n[nH]4)C(=O)O)cc3F)no2)cc1` (stereo not shown) [Compound 11S], the activation at 10 µM under setting [3] is more than 60%.

On to `CC(C)(C)OC(=O)Nc1ccc(-c2nc(-c3ccc(CC(NC(=O)Nc4cc(-c5ccc(F)cc5)n[nH]4)C(=O)O)cc3F)no2)cc1` (stereo not shown) [Compound 12I], for which the activation at 10 µM under setting [3] was more than 60%.

Turning to `CC(C)(C)OC(=O)Nc1ccc(-c2nc(-c3ccc(CC(NC(=O)Nc4cc(-c5ccc(F)cc5)on4)C(=O)O)cc3F)no2)cc1` (stereo not shown) [Compound 4S], the activation at 1 µM under setting [2] lay within 40 to 60%.

For `CC(C)(C)OC(=O)Nc1ccc(-c2nc(-c3ccc(CC(NC(=O)c4cccc(-c5ccc(C6CC6)cc5)n4)C(=O)O)cc3F)no2)cc1` (stereo not shown) [Compound 2M], the activation at 3.16 µM under setting [2] is more than 60%.

On to `CC(C)(C)OC(=O)Nc1ccc(-c2nc(-c3ccc(CC(NC(=O)Nc4ccc(C#N)cc4)C(=O)O)cc3F)no2)cc1` (stereo not shown) [Compound 4U], for which the activation at 3 µM under setting [2] fell in the range of 40 to 60%.

Regarding `Cc1ccc(-c2cccc(C(=O)N[C@H](Cc3ccc(-c4noc(-c5ccc(NC(=O)OC(C)(C)C)cc5)n4)c(F)c3)C(=O)O)c2)cc1F` [Compound 6L], the activation at 1 µM under setting [2] lay in the range of 20 to 40%.

As to `CC(C)(C)OC(=O)Nc1ccc(-c2nc(-c3ccc(CC(NC(=O)Nc4ccccc4)C(=O)O)cc3F)no2)cc1` (stereo not shown) [Compound 13D], the activation at 10 µM under setting [3] lay within 40 to 60%.

As for `COc1ccc(-c2ccc(C(=O)NC(Cc3ccc(-c4noc(-c5ccc(NC(=O)OC(C)(C)C)cc5)n4)c(F)c3)C(=O)O)o2)cc1` (stereo not shown) [Compound 1J], the activation at 3.16 µM under setting [2] is more than 60%.

Take `CC(C)(C)OC(=O)Nc1ccc(-c2nc(-c3ccc(CC(NC(=O)N4CCN(c5cccc(C(F)(F)F)c5)CC4)C(=O)O)cc3F)no2)cc1` (stereo not shown) [Compound 12F]: the activation at 10 µM under setting [3] is more than 60%.

For the compound `Cc1ccc(-c2ccc(C(=O)NC(Cc3ccc(-c4noc(-c5ccc(NC(=O)OC(C)(C)C)cc5C(F)(F)F)n4)c(F)c3)C(=O)O)o2)cc1` (stereo not shown) [Compound 1P], under setting [2], the activation at 3.16 µM was more than 60%.

As for `Cc1ccc(-c2ccc(C(=O)NC(Cc3ccc(-c4noc(-c5ccc(NC(=O)OC(C)(C)C)cc5F)n4)c(F)c3)C(=O)O)o2)cc1` (stereo not shown) [Compound 14A], the activation at 10 µM under setting [3] was more than 60%.

Take `CC(C)(C)OC(=O)Nc1ccc(-c2nc(-c3ccc(CC(NC(=O)c4cccc(-c5ccc(C6CC6)cc5)c4)C(=O)O)cc3F)no2)cc1` (stereo not shown) [Compound 2L]: the activation at 1 µM under setting [2] was more than 60%.

As to `CC1CCN(S(=O)(=O)NC(Cc2ccc(-c3noc(-c4ccc(NC(=O)OC(C)(C)C)cc4)n3)c(F)c2)C(=O)O)CC1` (stereo not shown) [Compound 3W], the activation at 1 µM under setting [2] was 40 to 60%.

Consider `CC(C)c1ccc(NC(=O)NC(Cc2ccc(-c3noc(-c4ccc(NC(=O)OC(C)(C)C)cc4)n3)c(F)c2)C(=O)O)cc1` (stereo not shown) [Compound 4W], for which the activation at 10 µM under setting [1] fell in the range of 40 to 60%.

Take `Cc1ccc(-c2ccc(C(=O)NC(Cc3ccc(OC(=O)c4ccc(NC(=O)OC(C)(C)C)cc4)c(F)c3)C(=O)O)o2)cc1` (stereo not shown) [Compound 1A]: the activation at 5 µM (concentration 5 μM, read-out: Activity (agonist), percentage of the activity of the control) is more than 60%.

`Cc1ccc(-c2ccc(C(=O)NC(Cc3ccc(C#Cc4ccc(NC(=O)OC(C)(C)C)cc4)c(F)c3)C(=O)O)o2)cc1` (stereo not shown) [Compound 5E]: the activation at 10 µM under setting [1] is more than 60%.

`Cc1ccc(-c2ccc(C(=O)NC(Cc3ccc(NC(=O)c4cccc(Br)c4)c(F)c3)C(=O)O)o2)cc1` (stereo not shown) [Compound 5S]: the activation at 10 µM under setting [1] was more than 60%.

For `CC(C)(C)OC(=O)Nc1ccc(C(=O)Oc2ccc3c(c2)CN(C(=O)c2ccc(NC(=O)OC(C)(C)C)cc2)C(C(=O)O)C3)cc1` (stereo not shown) [Compound 5X], the activation at 10 µM under setting [1] was more than 60%.

Turning to `Cc1cccnc1N1CCCN(C(=O)NC(Cc2ccc(-c3noc(-c4ccc(NC(=O)OC(C)(C)C)cc4)n3)c(F)c2)C(=O)O)CC1` (stereo not shown) [Compound 4R], the activation at 3 µM under setting [2] was in the range of 20 to 40%.

`Cc1ccc(-c2ccc(C(=O)NC(Cc3ccc(-c4noc(-c5ccc(NC(=O)OC(C)(C)C)cc5)n4)c(F)c3F)C(=O)O)o2)cc1` (stereo not shown) [Compound 13F]: the activation at 10 µM under setting [3] was more than 60%.

`CC(C)(C)OC(=O)Nc1ccc(-c2nc(-c3ccc(CC(NC(=O)c4cn(Cc5ccc(F)cc5)nn4)C(=O)O)cc3F)no2)cc1` (stereo not shown) [Compound 3K]: under setting [2], the activation at 3 µM was 20 to 40%.

On to `Cc1ccc(-c2ccc(C(=O)NC(Cc3ccc(-c4noc(-c5ccc(NC(=O)OC(C)(C)C)cc5)n4)c(F)c3)c3nnn[nH]3)o2)cc1` (stereo not shown) [Compound 1H], for which the activation at 3.16 µM under setting [2] was more than 60%.

With `CC(C)c1ccc(-c2cccc(C(=O)N[C@H](Cc3ccc(-c4noc(-c5ccc(NC(=O)OC(C)(C)C)cc5)n4)c(F)c3)C(=O)O)c2)cc1` [Compound 6D], the activation at 3 µM under setting [2] was 20 to 40%.

Consider `CC(C)Oc1ccc(-c2ccc(C(=O)N[C@H](Cc3ccc(-c4noc(-c5ccc(NC(=O)OC(C)(C)C)cc5)n4)c(F)c3)C(=O)O)o2)cc1` [Compound 6N], for which the activation at 3 µM under setting [2] is 40 to 60%.

As to `Cc1ccc(-c2cccc(C(=O)NC(Cc3ccc(-c4noc(-c5ccc(NC(=O)OC(C)(C)C)cc5)n4)nc3)C(=O)O)c2)cc1` (stereo not shown) [Compound 5K], the activation at 1 µM under setting [2] is more than 60%.

As to `Cc1ccc(N2CCN(S(=O)(=O)NC(Cc3ccc(-c4noc(-c5ccc(NC(=O)OC(C)(C)C)cc5)n4)c(F)c3)C(=O)O)CC2)cc1` (stereo not shown) [Compound 3Z], the activation at 3 µM under setting [2] is more than 60%.

Regarding `Cc1ccc(S(=O)(=O)NC(Cc2ccc(-c3noc(-c4ccc(NC(=O)OC(C)(C)C)cc4)n3)c(F)c2)C(=O)O)cc1Cl` (stereo not shown) [Compound 11F], the activation at 10 µM under setting [3] fell in the range of 40 to 60%.

With `CC(C)(C)OC(=O)Nc1ccc(-c2nc(-c3ccc(CC(NC(=O)c4cn(-c5ccc(C(C)(C)C)cc5)nn4)C(=O)O)cc3F)no2)cc1` (stereo not shown) [Compound 11V], under setting [3], the activation at 10 µM was more than 60%.

On to `CSc1ccc(-c2cccc(C(=O)NC(Cc3ccc(-c4noc(-c5ccc(NC(=O)OC(C)(C)C)cc5)n4)c(F)c3)C(=O)O)n2)cc1` (stereo not shown) [Compound 2O], for which the activation at 10 µM under setting [1] is more than 60%.

As to `CC(C)(C)OC(=O)Nc1ccc(-c2nc(-c3ccc(CC(NS(=O)(=O)c4ccc(C(F)(F)F)cc4[N+](=O)[O-])C(=O)O)cc3F)no2)cc1` (stereo not shown) [Compound 11M], the activation at 10 µM under setting [3] is more than 60%.

As to `CC(C)(C)OC(=O)Nc1ccc(-c2nc(-c3ccc(CC(NC(=O)c4cccc(-c5ccc(Cl)cc5F)n4)C(=O)O)cc3F)no2)cc1` (stereo not shown) [Compound 2N], under setting [2], the activation at 3.16 µM was more than 60%.

Turning to `Cc1ccc(-c2ccc(C(=O)NC3(C(=O)O)Cc4ccc(-c5noc(-c6ccc(NC(=O)OC(C)(C)C)cc6)n5)cc4C3)o2)cc1` (stereo not shown) [Compound 5Z], the activation at 10 µM under setting [1] was more than 60%.

`COc1ccc(-c2ccc(NC(=O)NC(Cc3ccc(-c4noc(-c5ccc(NC(=O)OC(C)(C)C)cc5)n4)c(F)c3)C(=O)O)nc2)cc1` (stereo not shown) [Compound 13Y]: the activation at 10 µM under setting [3] is more than 60%.

As to `Cc1cc(Cn2cc(C(=O)NC(Cc3ccc(-c4noc(-c5ccc(NC(=O)OC(C)(C)C)cc5)n4)c(F)c3)C(=O)O)cn2)ccc1F` (stereo not shown) [Compound 3F], the activation at 3.16 µM under setting [2] is 20 to 40%.

As for `CC(C)c1ccc(-c2ccc(C(=O)N[C@H](Cc3ccc(F)c(-c4noc(-c5ccc(NC(=O)OC(C)(C)C)cc5)n4)c3)C(=O)O)o2)cc1` [Compound 6V], under setting [2], the activation at 1 µM fell in the range of 20 to 40%.

`CC(C)(C)OC(=O)Nc1ccc(-c2nc(-c3ccc(CC(NC(=O)c4ccn(-c5ccc(C(F)(F)F)cc5)n4)C(=O)O)cc3F)no2)cc1` (stereo not shown) [Compound 3J]: the activation at 10 µM under setting [1] lay within 40 to 60%.

As to `Cc1ccc(S(=O)(=O)N2Cc3cc(OC(=O)c4ccc(NC(=O)OC(C)(C)C)cc4)ccc3CC2C(=O)O)cc1F` (stereo not shown) [Compound 5Y], the activation at 10 µM under setting [1] was more than 60%.
